Experimental data taken from PMC5736629, “Allosteric modulation of protein-protein interactions by individual lipid binding events” (Nature Communications, 2017).
Read-outs that look alike come from different tables or passages of the source.

Tests used:
AmtB = molecular target: T1, AmtB (Escherichia coli, UniProt P69681); assay: Native MS lipid titration, lipid binding to AmtB (equilibrium-coupled binding model); conditions: 50 µM ADP, 298 K
T1 construct: pelB signal peptide (N, cleaved yes); 10x His-tag (N, cleaved yes); made in house; host or cells: Escherichia coli C41(DE3), pET15b
Procedure: (§1) A stock of ADP was prepared by dissolving the ammonium salt form of ADP in water followed by adjusting the pH with ammonium hydroxide to 7.0. Serial dilutions into MS buffer (200 mM ammonium acetate, 0.5% C8E4, and pH adjusted to 7.4 with ammonium hydroxide) supplemented with 5 mM BME was performed to prepare ADP at certain concentrations. Phospholipids were prepared as previously described. In brief, stock solutions of each phospholipid were resuspended in chloroform, aliqouted, and chloroform was removed by a steady stream on nitrogen gas. Lipid films were placed under vacuum overnight to prepare to resuspend in MS buffer supplemented with 5 mM 2-mercaptoethanol. Phospholipid concentration was determined by phosphorus analysis.

AmtB–GlnK complex = molecular target: T2, AmtB–GlnK complex (Escherichia coli, UniProt P69681); assay: Native MS lipid titration, lipid binding to AmtB–GlnK (equilibrium-coupled binding model); conditions: 50 µM ADP, 298 K
T2 construct: pelB signal peptide (N, cleaved yes); 10x His-tag (N, cleaved yes); made in house; host or cells: AmtB: Escherichia coli C41(DE3), pET15b; stGlnK: Escherichia coli ArcticExpress (DE3) RIL, pET28b
Procedure: as §1

AmtB–GlnK interaction = molecular target: T3, AmtB–GlnK interaction (Escherichia coli, UniProt P69681); assay: Native MS lipid titration, GlnK binding to apo or lipid-bound AmtB; coupling factors (allosteric modulation); conditions: for Kd: 50 µM ADP, 298 K; for Coupling factor a1: first bound lipid; for effect of lipid-binding events on K D,ALnG / allosteric modulation of AmtB–GlnK (from coupling factors): result in words; for Coupling factor a2: second bound lipid; for Coupling factor a3: third bound lipid
T3 construct: pelB signal peptide (N, cleaved yes); 10x His-tag (N, cleaved yes); made in house; host or cells: AmtB: Escherichia coli C41(DE3), pET15b; stGlnK: Escherichia coli ArcticExpress (DE3) RIL, pET28b
Procedure: as §1

[1] = KD,AL1, first lipid binding to AmtB
[2] = KD,AL2, second lipid binding to AmtB
[3] = KD,AL3, third lipid binding to AmtB
[4] = KD,AGL1, first lipid binding to AmtB–GlnK
[5] = KD,AGL2, second lipid binding to AmtB–GlnK
[6] = KD,AGL3, third lipid binding to AmtB–GlnK
[7] = KD,AG, GlnK binding apo AmtB, from global fit of the titration with the named lipid
[8] = KD,AL2G, GlnK binding AmtB bound to 2 lipids
[9] = KD,ALG, GlnK binding AmtB bound to 1 lipid
[10] = KD,AL3G, GlnK binding AmtB bound to 3 lipids

T1 sequence (P69681 23-428): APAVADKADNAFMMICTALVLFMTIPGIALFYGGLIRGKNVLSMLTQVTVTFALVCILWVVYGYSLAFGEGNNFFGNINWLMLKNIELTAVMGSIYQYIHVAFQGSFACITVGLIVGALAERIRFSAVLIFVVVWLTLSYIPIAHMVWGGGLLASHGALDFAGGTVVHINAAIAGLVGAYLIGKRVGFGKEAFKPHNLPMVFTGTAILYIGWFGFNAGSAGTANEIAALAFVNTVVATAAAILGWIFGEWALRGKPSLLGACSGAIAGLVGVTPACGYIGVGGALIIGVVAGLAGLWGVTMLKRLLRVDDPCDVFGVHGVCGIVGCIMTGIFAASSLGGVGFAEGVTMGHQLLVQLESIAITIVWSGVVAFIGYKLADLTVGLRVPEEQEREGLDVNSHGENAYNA
T3 sequence (P0AC55 whole entry Y51F): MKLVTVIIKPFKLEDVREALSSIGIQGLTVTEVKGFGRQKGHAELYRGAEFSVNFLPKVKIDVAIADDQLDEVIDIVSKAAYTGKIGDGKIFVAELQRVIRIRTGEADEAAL
T3 sequence (P69681 23-428): as the sequence (P69681 23-428) above
T2 sequence (P0AC55 whole entry Y51F): as the sequence (P0AC55 whole entry Y51F) above
T2 sequence (P69681 23-428): as the sequence (P69681 23-428) above

CCCCCCCC/C=C\CCCCCCCC(=O)O[C@H](COC(=O)CCCCCCCCCCCCCCC)COP(=O)([O-])OCC[N+](C)(C)C [POPC]
Kd (AmtB; [1]): 29.2 ± 5.99 µM | Kd (AmtB; [2]): 68.3 ± 4.81 µM | Kd (AmtB; [3]): 104 ± 7.56 µM | Kd (AmtB–GlnK complex; [4]): 18.9 ± 1.36 µM | Kd (AmtB–GlnK complex; [5]): 40.3 ± 3.92 µM | Kd (AmtB–GlnK complex; [6]): 59.5 ± 17.9 µM | Kd (AmtB–GlnK interaction; [7]): 0.486 ± 0.0325 µM | Kd (AmtB–GlnK interaction; [8]): 0.192 ± 0.0112 µM | Kd (AmtB–GlnK interaction; [9]): 0.345 ± 0.0822 µM | Coupling factor a1 (AmtB–GlnK interaction): 1.52 ± 0.23 | effect of lipid-binding events on K D,ALnG (AmtB–GlnK interaction): decrease in K D,ALnG with each consecutive binding event | Coupling factor a2 (AmtB–GlnK interaction): 1.76 ± 0.31 | Coupling factor a3 (AmtB–GlnK interaction): 2.50 ± 0.80

CCCCCCCCCCCCCCCC(=O)OC[C@H](COP(=O)(O)OCC(O)CO)OC(=O)CCCCCCCCCCCCCCC (stereo partly shown) [DPPG]
Kd (AmtB; [1]): 18.5 ± 1.85 µM | Kd (AmtB; [2]): 63.8 ± 13.2 µM | Kd (AmtB; [3]): 99.8 ± 45.3 µM | Kd (AmtB–GlnK complex; [4]): 14.8 ± 0.64 µM | Kd (AmtB–GlnK complex; [5]): 31.7 ± 1.89 µM | Kd (AmtB–GlnK complex; [6]): 53.4 ± 16.6 µM | Kd (AmtB–GlnK interaction; [7]): 0.521 ± 0.0158 µM | Kd (AmtB–GlnK interaction; [8]): 0.23 ± 0.0559 µM | Kd (AmtB–GlnK interaction; [10]): 0.164 ± 0.0721 µM | Kd (AmtB–GlnK interaction; [9]): 0.424 ± 0.0361 µM | Coupling factor a1 (AmtB–GlnK interaction): 1.25 ± 0.10 | Coupling factor a2 (AmtB–GlnK interaction): 1.98 ± 0.32 | Coupling factor a3 (AmtB–GlnK interaction): 1.66 ± 0.33

CCCCCCCC/C=C\CCCCCCCC(=O)O[C@H](COC(=O)CCCCCCCCCCCCCCC)COP(=O)(O)OCCN [POPE]
Kd (AmtB; [1]): 21.1 ± 0.27 µM | Kd (AmtB; [2]): 55.3 ± 9.22 µM | Kd (AmtB; [3]): 96.2 ± 27 µM | Kd (AmtB–GlnK complex; [4]): 16.3 ± 0.4 µM | Kd (AmtB–GlnK complex; [5]): 33.6 ± 1.24 µM | Kd (AmtB–GlnK complex; [6]): 47.7 ± 7.02 µM | Kd (AmtB–GlnK interaction; [7]): 0.504 ± 0.0616 µM | Kd (AmtB–GlnK interaction; [8]): 0.245 ± 0.0372 µM | Kd (AmtB–GlnK interaction; [10]): 0.137 ± 0.0482 µM | Kd (AmtB–GlnK interaction; [9]): 0.391 ± 0.0593 µM | Coupling factor a1 (AmtB–GlnK interaction): 1.30 ± 0.04 | increase in the coupling factor per lipid-binding event (AmtB–GlnK interaction; linear fit to the coupling factors as a function of bound lipid): 0.4 | allosteric modulation of AmtB–GlnK (from coupling factors) (AmtB–GlnK interaction): positive allosteric modulation | effect of lipid-binding events on K D,ALnG (AmtB–GlnK interaction): decrease in K D,ALnG with each consecutive binding event | Coupling factor a2 (AmtB–GlnK interaction): 1.63 ± 0.24 | Coupling factor a3 (AmtB–GlnK interaction): 2.04 ± 0.37

CCCCCCCC/C=C\CCCCCCCC(=O)O[C@H](COC(=O)CCCCCCCCCCCCCCC)COP(=O)(O)OC[C@H](N)C(=O)O [POPS]
Kd (AmtB; [1]): 10.5 ± 0.97 µM | Kd (AmtB; [2]): 21.8 ± 1.97 µM | Kd (AmtB; [3]): 30.4 ± 4.97 µM | Kd (AmtB–GlnK complex; [4]): 9.18 ± 0.6 µM | Kd (AmtB–GlnK complex; [5]): 19.9 ± 0.36 µM | Kd (AmtB–GlnK complex; [6]): 26.7 ± 1.82 µM | Kd (AmtB–GlnK interaction; [7]): 0.499 ± 0.0347 µM | Kd (AmtB–GlnK interaction; [8]): 0.405 ± 0.0395 µM | Kd (AmtB–GlnK interaction; [10]): 0.363 ± 0.0372 µM | Kd (AmtB–GlnK interaction; [9]): 0.446 ± 0.0644 µM | Coupling factor a1 (AmtB–GlnK interaction): 1.15 ± 0.09 | allosteric modulation of AmtB–GlnK (from coupling factors) (AmtB–GlnK interaction): neutral allosteric modulation | effect of lipid-binding events on K D,ALnG (AmtB–GlnK interaction): little effect on K D,ALnG | Coupling factor a2 (AmtB–GlnK interaction): 1.09 ± 0.08 | Coupling factor a3 (AmtB–GlnK interaction): 1.13 ± 0.10

CCCCCCCC/C=C\CCCCCCCC(=O)OC[C@H](COP(=O)(O)OCC(O)COP(=O)(O)OC[C@@H](COC(=O)CCCCCCC/C=C\CCCCCCCC)OC(=O)CCCCCCC/C=C\CCCCCCCC)OC(=O)CCCCCCC/C=C\CCCCCCCC (stereo partly shown) [TOCDL, 1,1′,2,2′-tetraoleoyl-cardiolipin]
Kd (AmtB; read-out: KD,AL1, first lipid binding to AmtB): 19.9 ± 1.65 µM | Kd (AmtB; read-out: KD,AL2, second lipid binding to AmtB): 30.2 ± 2.05 µM | Kd (AmtB; read-out: KD,AL3, third lipid binding to AmtB): 33.1 ± 6.01 µM | Kd (AmtB–GlnK complex; read-out: KD,AGL1, first lipid binding to AmtB–GlnK): 17 ± 0.17 µM | Kd (AmtB–GlnK complex; read-out: KD,AGL2, second lipid binding to AmtB–GlnK): 29.3 ± 1.42 µM | Kd (AmtB–GlnK complex; read-out: KD,AGL3, third lipid binding to AmtB–GlnK): 29.5 ± 1.68 µM | Coupling factor a1 (AmtB–GlnK interaction): 1.17 ± 0.09 | Kd (AmtB–GlnK interaction; read-out: KD,AG, GlnK binding apo AmtB, from global fit of the titration with the named lipid): 0.517 ± 0.0312 µM | Kd (AmtB–GlnK interaction; read-out: KD,AL2G, GlnK binding AmtB bound to 2 lipids): 0.443 ± 0.0689 µM | Kd (AmtB–GlnK interaction; read-out: KD,AL3G, GlnK binding AmtB bound to 3 lipids): 0.414 ± 0.0776 µM | Kd (AmtB–GlnK interaction; read-out: KD,ALG, GlnK binding AmtB bound to 1 lipid): 0.45 ± 0.0561 µM | allosteric modulation of AmtB–GlnK (from coupling factors) (AmtB–GlnK interaction): neutral allosteric modulation | effect of lipid-binding events on K D,ALnG (AmtB–GlnK interaction): little effect on K D,ALnG | Coupling factor a2 (AmtB–GlnK interaction): 1.03 ± 0.06 | Coupling factor a3 (AmtB–GlnK interaction): 1.11 ± 0.15

CCCCCCCCCCCC(=O)OC[C@H](COP(=O)(O)OCC(O)CO)OC(=O)CCCCCCCCCCC (stereo partly shown) [DLPG]
Kd (AmtB; [1]): 22.5 ± 3.23 µM | Kd (AmtB; [2]): 39.1 ± 9.25 µM | Kd (AmtB; [3]): 34.03 ± 0.15 µM | Kd (AmtB–GlnK complex; [4]): 17.1 ± 1.96 µM | Kd (AmtB–GlnK complex; [5]): 28.6 ± 3.98 µM | Kd (AmtB–GlnK complex; [6]): 29.1 ± 2.27 µM | Kd (AmtB–GlnK interaction; [7]): 0.522 ± 0.0258 µM | Kd (AmtB–GlnK interaction; [8]): 0.313 ± 0.0435 µM | Kd (AmtB–GlnK interaction; [10]): 0.271 ± 0.0539 µM | Kd (AmtB–GlnK interaction; [9]): 0.401 ± 0.0148 µM | Coupling factor a1 (AmtB–GlnK interaction): 1.30 ± 0.04 | Coupling factor a2 (AmtB–GlnK interaction): 1.35 ± 0.26 | Coupling factor a3 (AmtB–GlnK interaction): 1.19 ± 0.15
